Where two headings read alike, the source gives them in different places.
Assays:
[1] = cited from earlier work
[2] = tested on: participants with advanced ovarian cancer; test: post-hoc analysis of the PRIMA clinical trial (progression free survival); format: in vivo, human; details: post hoc subgroups, Kaplan-Meier
From the text: This example describes a post-hoc analysis of the PRIMA clinical trial.
This was an exploratory post hoc analysis.
For the subgroup analyses, we performed a two-sided log-rank test using randomization stratification factors (best response to last platinum; HRD status; and time from penultimate platinum to progression) to analyze PFS (progression free survival), which was summarized with the use of Kaplan-Meier methods. We estimated hazard ratios with two-sided 95% Confidence Intervals (CIs) using a stratified Cox proportional hazards (PH) model, with the stratification factors used in randomization.
The Cox model for interaction testing also included stratification factors used in randomization as covariates.

[3] = pH 7.0, Shitara et al., Pharmacology & Therapeutics, 2006
[4] = pH 7.4, Matre et al., Vascular Health and Risk Management, 2016

SMILES | log D [1, 3] | log D [1, 4] | mPFS [2] [months] | log D ([1]; pH 7.4, Shitara et al., Pharmacology & Therapeutics, 2006)
O=C(O)C[C@H](O)C[C@H](O)/C=C/c1c(C2CC2)nc2ccccc2c1-c1ccc(F)cc1 [pitavastatin] | 1.50 | 1.50 |  | 
NC(=O)c1cccc2cn(-c3ccc([C@@H]4CCCNC4)cc3)nc12 [niraparib] |  |  | 13.7 | 
CC(C)n1c(/C=C/C(O)CC(O)CC(=O)O)c(-c2ccc(F)cc2)c2ccccc21 (stereo not drawn) [fluvastatin] | 1.75 | 1.75 |  | 
CC[C@H](C)C(=O)O[C@H]1C[C@H](O)C=C2C=C[C@H](C)[C@H](CC[C@@H](O)C[C@@H](O)CC(=O)O)[C@H]21 [pravastatin] | −0.47 |  |  | 
CC(C)c1nc(N(C)S(C)(=O)=O)nc(-c2ccc(F)cc2)c1/C=C/[C@@H](O)C[C@@H](O)CC(=O)O [rosuvastatin] |  |  |  | −0.25 to −0.50
CC[C@H](C)C(=O)O[C@H]1C[C@@H](C)C=C2C=C[C@H](C)[C@H](CC[C@@H]3C[C@@H](O)CC(=O)O3)[C@H]21 [lovastatin] | 3.91 | 2.59 |  | 
